The test system of assay [1] is Acetobacter altoacetigenes MH-24 (FERM BP-491). The text has this: (§1) The present invention relates to a method for producing a high-acidity vinegar having acidity of 10% to 25%, particularly 15% to 25% by brewing, i.e., acetic acid fermentation. In general, the acidity of vinegar means the concentration of acetic acid (w/v %) in the vinegar. The acidity referred to herein means the acetic acid concentration determined by conducting neutralization titration of the sample (vinegar) with phenolphthalein as an indicator and 1N sodium hydroxide aqueous solution in the manner known to persons skilled in the art.
(§2) A culture solution (2.5 L) containing acetic acid (8 w/v %), ethanol (2 v/v %), Acetozym DS+2 (product of FRINGS; 0.15 w/v %), and a variety of additives at given concentrations was introduced into a 5 L-volume jar fermenter. The total nitrogen content of the culture solution was 0.006 w/v %. Cryopreserved Acetobacter altoacetigenes MH-24 (FERM BP-491) was inoculated into the culture solution to start acetic acid fermentation. Submerged fermentation involving aeration stirring was adopted for the fermentation. Fermentation was conducted under the conditions of a temperature at 30° C., a rotative speed of 600 rpm, and an aeration volume of 0.15 vvm.
(§3) After the start of fermentation, 95% ethanol was fed to the fermentation liquid until the acidity (acetic acid concentration: w/v %) of the fermentation liquid exceeded 15% so as to maintain the ethanol concentration in the fermentation liquid at 1.5 to 3 v/v %. At the time point at which the acidity exceeded 15% (approximately 15.5%) and the ethanol concentration reached about 0.5 v/v %, the fermentation liquid was pulled out such that approximately half of the total fermentation liquid volume is remained.
After the portion of the fermentation liquid was pulled out, the above components were added again without discontinuation of aeration and stirring of the remaining fermentation liquid such that the volume of the fermentation liquid was adjusted to 2.5 L and the composition of the fermentation liquid became equivalent to the composition of the original culture solution. Then, fermentation was continued in the above manner. Thereafter the cycle, in which fermentation was conducted until the acidity exceeded 15% (approximately 15.5%), approximately half of the total volume of the fermentation liquid was pulled out and the above components were added again to restart fermentation with decreased acidity, is repeated to conduct semi-continuous fermentation. Seven times repeats of the cycle from the start of fermentation to re-introduction of the components was regarded as one examination. Six examinations were conducted with each different condition of additives. […]

The test system is the same in assay [2]. The assay can be described thus: Semi-continuous acetic acid fermentation, culture solution with Acetozym DS+2 and additives (Example 1). The class given is cell-based. The settings on record: for Final acidity: acidity when a portion of the fermentation liquid was pulled out; for Fermentation time: average time of one cycle (2nd to 7th cycles) until acidity exceeded 15%; for Productivity: rate of increase in acidity per hour.
Excerpt: as §1, §2, §3
After the portion of the fermentation liquid was pulled out, the above components were added again without discontinuation of aeration and stirring of the remaining fermentation liquid such that the volume of the fermentation liquid was adjusted to 2.5 L and the composition of the fermentation liquid became equivalent to the composition of the original culture solution. Then, fermentation was continued in the above manner. Thereafter the cycle, in which fermentation was conducted until the acidity exceeded 15% (approximately 15.5%), approximately half of the total volume of the fermentation liquid was pulled out and the above components were added again to restart fermentation with decreased acidity, is repeated to conduct semi-continuous fermentation. Seven times repeats of the cycle from the start of fermentation to re-introduction of the components was regarded as one examination. Six examinations were conducted with each different condition of additives. Table 1 summarizes the average time duration required for one cycle, i.e., from the restart of fermentation to the time point at which the acidity exceeded 15%, (the average time of 2nd to 7th cycles), final acidity (acidity when a portion of the fermentation liquid was pulled out), and productivity (the rate of increase in acidity per hour) with the types and amounts of additives.

Where [3] appears, read: Glutathione 220 μM, 4 cycle repetitions.

Read-outs that look alike come from different tables or passages of the source.

In assay [1] (setting [3]), `N[C@@H](CCC(=O)N[C@@H](CS)C(=O)NCC(=O)O)C(=O)O` [Glutathione] displayed a Fermentation time of 51.3 h and a Final acidity of 15.4%. Moreover, the Productivity in assay [1] (Glutathione 220 μM, 4 cycle repetitions, rate of increase in acidity per hour) is on record as 0.144 %/h. The Effect on productivity entry in assay [1] (Glutathione used as additive (220 μM), versus no additive) was “productivity was significantly improved”.
As to `N[C@@H](CSSC[C@H](N)C(=O)O)C(=O)O` [L-cystine], the results for the Final acidity in assay [2] (L-cystine 18 μM), in assay [2] (L-cystine 45 μM) and in assay [2] (L-cystine 90 μM) were 15.4%, 15.3% and 15.3%, respectively. Besides, the Fermentation time in assay [2] (L-cystine 18 μM) was found to be 48.9 h; in assay [2] (L-cystine 45 μM) it was 41.7 h; in assay [2] (L-cystine 90 μM) it was 37.5 h. Moreover, the Productivity in assay [2] (L-cystine 18 μM) came to 0.151 %/h; in assay [2] (L-cystine 45 μM), 0.175 %/h; in assay [2] (L-cystine 90 μM), 0.195 %/h. Moreover, the “Effect on productivity as compared with Exam 1 (no additive)” value in assay [2] (L-cystine alone, 18 μM (Exam 2)) was “effect of improving productivity was confirmed”.

The values above are taken from US9453192B2, “High-acidity vinegar and method for producing the same” (priority 2012, dated 2016).
